The test system of series [1] is senescent preadipocytes (C12FDG^Hi) in eWAT of HFD mice. In words: C12FDG flow cytometry assay (SA-βgal activity) on eWAT SVF of HFD mice. Format: in vivo, mouse. On the procedure: (§1) MATERIALS AND METHODS. Mouse husbandry. All procedures involving mice were performed according to the IACUC standards following ethics approval by the animal committee at the University of California, San Francisco. Male C57BL6/J on chow or HFD fed mice. HFD mice were fed a high-fat diet (60% kcal from fat) from 6 weeks until 22 weeks of age. All experiments on HFD mice were performed at 22-24 weeks total age (16-18 weeks on HFD). Age-matched male C57BL6/J mice on standard rodent chow diet were used as controls. For the lung injury model, 10-week-old male C57BL/6J mice were used. The animals were divided into three groups: the control group, the injured group, and the α-GalCer treated group. The animals in the control group received vehicle only (i.p.) on day 10. The injured group animals received bleomycin (3 U/kg) via the intratracheal route at the start of the experiment (day 0). The animals in the α-GalCer treated groups received bleomycin (3 U/kg) on day 0, and i.p. injection of α-GalCer (2 μg/mouse) on day 10. The animals in all the groups were sacrificed on day 14, and lungs were harvested for isolation of primary pulmonary Alveolar Type II cells (ATII) on the same day. For the hydroxyproline assay, mice were euthanized 21 days after injury.
Epidydmal white adipose tissue stromal vascular fraction (eWAT SVF) isolation. eWAT SVF was isolated using standard protocols. Briefly, mice were euthanized, and epididymal fat pads were harvested, washed twice in D-PBS and minced. eWAT pads were digested with 1 U/ml Collagenase-D (Roche) in 1×HBSS containing 1% BSA (Sigma-Aldrich) for 1 hr at 37° C. Digested fat tissue was then strained twice through 100 μm strainers and neutralized with 30 ml of complete culture media (DMEM-F12 1:1, 10% FBS, 1×Penicillin-streptomycin). Samples were spun at 500 g for 5 minutes, shaken to resuspend the SVF pellet and then spun again. The resulting SVF pellet containing blood cells was lysed with ACKS buffer, washed in D-PBS and spun down. Total live SVF cells were counted using trypan blue and then used for various assays.
C12FDG flow cytometry assay. eWAT SVF cells isolated and counted as described above were adjusted to 3×10^6 cells/ml in complete culture media and incubated with 33 μM C12FDG for 1 hr in a 37° C. water bath. Cells were then spun down at 500 g for 5 minutes, washed with Cell Staining buffer, and stained with anti-CD45-APC (clone 30F-11) and anti-CD31-PE-Cy7 (clone 390) each at a 1:200 dilution on ice for 30 minutes. Cells were then washed in Cell Staining buffer and resuspended in Cell Staining buffer containing 1×7-AAD. Samples were analyzed on an Attune acoustic focusing cytometer. Gates were set as follows: cells (FSC-A/SSC-A), forward scatter singlets (FSC-H/FSC-A), side-scatter singlets (SSC-H/SSC-A), live cells (7-AAD^−), non-immune cells (CD45^−), non-endothelial cells (CD31^−) and analyzed for C12FDG fluorescence. […] Data were analyzed with FlowJo (v. 10). For Lung, 1×10^6 cells from each sample were used to perform the assay. The cells were incubated with 66 μm of C12FDG in sterile DMEM containing DNase for 1 hour at 37° C. Following the incubation, the cells were washed with cell staining buffer, blocked with anti CD16/32 mouse monoclonal antibody (1:1000, prepared by the UCSF monoclonal antibody core), and stained with APC anti-mouse CD45 (1:400), and 7-AAD (1:1000). The gating strategy followed selected 7-AAD^−, CD45^−, and C12FDG^+ cells. […]

Another series concerns iNKT cells in the eWAT. Description: Flow cytometry of iNKT cells in eWAT SVF of HFD mice (CD1d tetramer). Format: in vivo, mouse. The settings on record: 2 μg i.p., vs obese mice treated with vehicle. How it is done: (§2) α-GalCer activation of iNKT cells. iNKT cells were activated in vivo using α-GalCer as described in Peralbo et al., 2006. Decreased frequency and proliferative response of invariant Vα24Vβ11 natural killer T (iNKT) cells in healthy elderly. Biogerontology 7, 483-492. Briefly, HFD mice were i.p. injected with 200 μl of a 10 μg/ml α-GalCer solution (2 μg total) made up in 5.6% Sucrose, 5% Tween-20. On day 3 or 4 post-injection, mice were euthanized for various experiments, as indicated.
Flow cytometry of iNKT cells. eWAT SVF cells were stained with PBS57 (α-GalCer-analog) loaded onto CD1d-PE tetramers prepared by the NIH Tetramer Core and anti-CD3-APC. As a negative control for subtracting background staining in eWAT SVF, samples were also stained with unloaded CD1d-PE tetramer and anti-CD3-APC. Live cells were enumerated with DAPI, and flow cytometry was performed on an Attune acoustic focusing cytometer. Gates were set to identify: cells (FSC-A/SSC-A), forward scatter singlets (FSC-H/FSC-A), side-scatter singlets (SSC-H/SSC-A), live cells (DAPI^−), and the PBS57::CD1d-PE^+/CD3-APC^+ subpopulation. The percent of unloaded CD1d-PE^+/CD3-APC^+ cells were subtracted from the loaded tetramer stained populations to eliminate the percent of background stained cells. For lung, 1×10^6 cells from each sample were used to quantify iNKT cells. […]

A short description of series [2]: Metabolic measurements in HFD-fed mice (fasting glucose, GTT, HOMA-IR). Format: in vivo, mouse. The settings on record: 10 days after α-GalCer injection. On the procedure: as §2
Metabolic measurements. Seventeen male HFD-fed C57BL6J mice were divided into the vehicle (n=8) and the α-GalCer treated group (n=9). Age-matched male C57BL6/J mice on a standard rodent chow diet were used as controls (n=8). A glucose tolerance test was performed 10 days after α-GalCer injection. Mice were fasted overnight (14 h) before being injecting 2 g/kg glucose intraperitoneally. Blood glucose was measured at 0, 15, 30, 60, and 120 min after glucose injection using a glucometer.

Series [3] has as its system lung parenchymal iNKT cells. Description: Bleomycin-induced lung injury model, flow cytometry of lung iNKT cells. Format: in vivo, mouse. As to conditions: bleomycin-injured mice, GalCer day 10, harvest day 14; FIG. 4C. On the procedure:
as §1, with “The animals in all the groups were sacrificed on day 14, and lungs were harvested for isolation of primary pulmonary Alveolar Type II cells (ATII) on the same day. For the hydroxyproline assay, mice were euthanized 21 days after injury.” left out
Flow cytometry of iNKT cells. eWAT SVF cells were stained with PBS57 (α-GalCer-analog) loaded onto CD1d-PE tetramers prepared by the NIH Tetramer Core and anti-CD3-APC. […] For lung, 1×10^6 cells from each sample were used to quantify iNKT cells. […]

The conditions of series [4]: Lynch 2012, Schipper 2012, Ji 2012; cited from earlier work.
The conditions of series [5]: pre-clinical and clinical studies, Wolf et al., 2018; cited from earlier work.

The structures appear in SMILES notation.

For `CCCCCCCCCCCCCCCCCCCCCCCCCC(=O)N[C@@H](CO[C@H]1O[C@H](CO)[C@H](O)[C@H](O)[C@H]1O)[C@H](O)[C@H](O)CCCCCCCCCCCCCC` [GalCer, alpha-Galactosylceramide], the “senescent cells (C12FDG+ SVF cells), Traj18^−/− HFD mice” value in series [1] (HFD fed Traj18^−/− mice (lack invariant TCR chain) injected with GalCer) is on record as “failed to reduce senescent cells in Traj18^−/− mice”. For the same molecule, in series [1] (HFD fed WT mice injected with GalCer), the “senescent cells (C12FDG+ SVF cells), WT HFD mice” value was “reduction of senescent cells in WT HFD mice”. Further, the “number of C12FDG^Hi preadipocytes in eWAT” value in series [1] (HFD mice injected with GalCer (2 μg i.p.) vs vehicle, FIG. 3A) is reported as “deplete the number of these C12FDG^Hi cells to levels akin to those seen in lean control mice”. For the same molecule, the “iNKT cell numbers in eWAT” value in the series on iNKT cells in the eWAT is recorded as “dramatically increase iNKT cell numbers”. In addition, the “glucose tolerance (GTT)” value in series [2] (2 g/kg glucose i.p. after 14 h fast, vs vehicle) is given as “improved glucose tolerance”. In series [2] (vs vehicle), the “insulin sensitivity (HOMA-IR)” value is “improved insulin sensitivity”. The fasting glucose entry in series [2] (vs vehicle-treated HFD-fed mice) is “significantly lower fasting glucose”. For the same molecule, the “lung parenchymal iNKT cells (proportion of T cells)” value in series [3] is listed as “induced expansion of lung parenchymal iNKT cells”. Further, the “metabolic phenotypes in the HFD mouse model (literature)” value in series [4] is listed as “reverse adverse metabolic phenotypes”. Also, the “tolerability / side effects” value in series [5] is “generally been well-tolerated over a wide range of doses with minimal side effects”.

The values above are taken from patent US20230172984A1, “CLEARANCE OF SENESCENT CELLS BY ACTIVATION OF iNKT CELLS” (THE REGENTS OF THE UNIVERSITY OF CALIFORNIA, priority 2020, published 2023).
